Among the data in patent publication US9073926B2, “Heterocyclic compounds containing a pyrrolopyridine or benzimidazole core” (Boehringer Ingelheim International GmbH, priority 2009, dated 2015) are IC50 values, retold here.

Usually IC50 stands for the concentration needed to halve the response being measured.

Human RSK2, sequence (P51812 whole entry): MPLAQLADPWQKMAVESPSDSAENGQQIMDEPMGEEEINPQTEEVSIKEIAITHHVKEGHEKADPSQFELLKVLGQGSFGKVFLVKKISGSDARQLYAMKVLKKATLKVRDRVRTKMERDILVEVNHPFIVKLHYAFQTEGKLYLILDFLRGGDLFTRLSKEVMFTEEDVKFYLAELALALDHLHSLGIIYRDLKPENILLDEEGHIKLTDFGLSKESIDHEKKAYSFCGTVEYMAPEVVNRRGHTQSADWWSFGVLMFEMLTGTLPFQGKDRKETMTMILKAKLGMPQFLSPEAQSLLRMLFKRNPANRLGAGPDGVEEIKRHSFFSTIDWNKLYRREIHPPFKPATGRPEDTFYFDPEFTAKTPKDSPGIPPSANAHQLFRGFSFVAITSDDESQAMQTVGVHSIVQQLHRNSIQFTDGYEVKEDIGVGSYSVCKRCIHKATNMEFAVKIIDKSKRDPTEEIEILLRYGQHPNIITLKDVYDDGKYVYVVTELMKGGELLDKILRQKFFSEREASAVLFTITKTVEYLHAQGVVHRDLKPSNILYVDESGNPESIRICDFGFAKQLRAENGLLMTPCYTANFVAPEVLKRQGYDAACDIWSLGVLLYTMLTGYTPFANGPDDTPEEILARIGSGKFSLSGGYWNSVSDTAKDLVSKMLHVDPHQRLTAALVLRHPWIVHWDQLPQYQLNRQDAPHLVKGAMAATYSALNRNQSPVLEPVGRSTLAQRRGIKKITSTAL

For the experiment, the target named is Human RSK2 (Homo sapiens (Human), UniProt P51812). Kind of experiment: Human RSK2 Assay (Kinase Glo Plus, residual ATP). The format is biochemical. The following applies: 0.75 nM His-RSK2, 0.75 μM ATP, 1.0 μM S6 Kinase/RSK Substrate Peptide 1. The procedure:
Experimental Method A: Human RSK2 Assay
Compounds are assessed for their ability to inhibit the phosphorylation of a substrate peptide by RSK2.
Human RSK2 protein, purchased from Invitrogen, is used to measure kinase activity utilizing Kinase Glo Plus (Promega) a homogeneous assay technology, which uses a luciferin-luciferase based ATP detection reagent to quantify residual ATP. The assay is performed using 0.75 nM His-RSK2, 0.75 μM ATP and 1.0 μM S6 Kinase/RSK Substrate Peptide 1 (Upstate, catalog #12-124), in assay buffer consisting of 25 mM HEPES, pH 7.5, 10 mM MgCl2, 5 mM MnCl2, 50 mM KCl, 0.2% BSA, 0.01% CHAPS, 100 μM Na3VO4, 0.5 mM DTT, and 1% DMSO. Solutions of test compounds at various concentrations are prepared by 1:3 fold serial dilution of a 1 mM solution of compound in DMSO. The DMSO solutions are further diluted with assay buffer to a final concentration of DMSO of 5%.
The assay is performed in a 384 well, white, non-binding plate (Corning, catalogue #3574). Solutions of test compounds (10 μL) are transferred to a dry assay plate, followed by addition of 20 μL kinase and 20 μL ATP+Substrate Peptide 1 described above. The kinase reaction mixture is incubated for 90 minutes at 28° C. followed by addition of 30 μL of ATP detection reagent for 15 minutes at room temperature. The relative light unit (RLU) signal is measured on a LJL Analyst (Molecular Devices) in luminescence mode using 384 aperture. The RLU signals were converted to percent of control (POC) values using the formula: POC=100*(BCTRL−Signal)/(BCTRL−PCTRL), where Signal is the test well RLU signal, BCTRL is the average of background (negative control), which consists of ATP+peptide and compound buffer, well signals on the plate, and PCTRL is the average of positive control, which consists of kinase, ATP+peptide, and compound buffer, well signals on the plate. For concentration-responsive compounds, POC as a function of test compound concentration are fitted to a 4-parameter logistic equation of the form: Y=A+(B−A)/[1+(x/C)^D], where A, B, C, and D are fitted parameters (parameter B is fixed at zero POC), and x and y are the independent and dependent variables, respectively. The IC50 (50% inhibitory concentration) is determined as the inflection point parameter, C. Experimental Method B: Human RSK2 Trans-Reporter Assay
A general note: Kinase-Glo measures the ATP left after a reaction by luminescence.
Regarding `Cc1ccnc(NC(=O)c2ccc3cc4n(c3n2)CCCNC4=O)c1` [Example 38, N-(4-methylpyridin-2-yl)-6-oxo-7,8,9,10-tetrahydro-6H-pyrido[3′,2′:4,5]pyrrolo[1,2-a][1,4]diazepine-2-carboxamide], the IC50 worked out at 0.0038 µM.
As for `CC1(C)CNC(=O)c2cc3ccc(C(=O)Nc4cnc5ccccc5c4)nc3n2C1` [Example 39, 9,9-dimethyl-6-oxo-N-(quinolin-3-yl)-7,8,9,10-tetrahydro-6H-pyrido[3′,2′:4,5]pyrrolo[1,2-a][1,4]diazepine-2-carboxamide], the figure is 0.091 µM.
As for `CC1CCNC(=O)c2cc3ccc(C(=O)Nc4cnn(C)c4)nc3n21` (stereo not shown) [Example 40, 10-methyl-N-(1-methyl-1H-pyrazol-4-yl)-6-oxo-7,8,9,10-tetrahydro-6H-pyrido[3′,2′:4,5]pyrrolo[1,2-a][1,4]diazepine-2-carboxamide], the figure is 0.00078 µM; as for `Cn1cc(NC(=O)c2ccc3cc4n(c3n2)CCCNC4=O)cn1` [Example 41, N-(1-methyl-1H-pyrazol-4-yl)-6-oxo-7,8,9,10-tetrahydro-6H-pyrido[3′,2′:4,5]pyrrolo[1,2-a][1,4]diazepine-2-carboxamide], 0.0048 µM; as for `Cn1cc(NC(=O)c2ccc3cc4n(c3n2)CC(C)(C)CNC4=O)cn1` [Example 42, 9,9-dimethyl-N-(1-methyl-1H-pyrazol-4-yl)-6-oxo-7,8,9,10-tetrahydro-6H-pyrido[3′,2′:4,5]pyrrolo[1,2-a][1,4]diazepine-2-carboxamide], 0.072 µM.
The value for `CC1CCNC(=O)c2cc3ccc(C(=O)Nc4cnn(C(C)(C)C)c4)nc3n21` (stereo not shown) [Example 43, N-(1-tert-butyl-1H-pyrazol-4-yl)-10-methyl-6-oxo-7,8,9,10-tetrahydro-6H-pyrido[3′,2′:4,5]pyrrolo[1,2-a][1,4]diazepine-2-carboxamide] was 0.0011 µM; that for `CC(C)(C)n1cc(NC(=O)c2ccc3cc4n(c3n2)CCCNC4=O)cn1` [Example 44, N-(1-tert-butyl-1H-pyrazol-4-yl)-6-oxo-7,8,9,10-tetrahydro-6H-pyrido[3′,2′:4,5]pyrrolo[1,2-a][1,4]diazepine-2-carboxamide] was 0.0097 µM; that for `CC1(C)CNC(=O)c2cc3ccc(C(=O)Nc4cnn(C(C)(C)C)c4)nc3n2C1` [Example 45, N-(1-tert-butyl-1H-pyrazol-4-yl)-9,9-dimethyl-6-oxo-7,8,9,10-tetrahydro-6H-pyrido[3′,2′:4,5]pyrrolo[1,2-a][1,4]diazepine-2-carboxamide] was 0.05 µM.
In the case of `CC1CCNC(=O)c2cc3ccc(C(=O)Nc4cnn(Cc5ccccc5)c4)nc3n21` (stereo not shown) [Example 46, N-(1-benzyl-1H-pyrazol-4-yl)-10-methyl-6-oxo-7,8,9,10-tetrahydro-6H-pyrido[3′,2′:4,5]pyrrolo[1,2-a][1,4]diazepine-2-carboxamide], the 50% inhibitory concentration (IC50) came to 0.00039 µM.
As for `O=C(Nc1cnn(Cc2ccccc2)c1)c1ccc2cc3n(c2n1)CCCNC3=O` [Example 47, N-(1-benzyl-1H-pyrazol-4-yl)-6-oxo-7,8,9,10-tetrahydro-6H-pyrido[3′,2′:4,5]pyrrolo[1,2-a][1,4]diazepine-2-carboxamide], the figure is 0.0038 µM; as for `CC1(C)CNC(=O)c2cc3ccc(C(=O)Nc4cnn(Cc5ccccc5)c4)nc3n2C1` [Example 48, N-(1-benzyl-1H-pyrazol-4-yl)-9,9-dimethyl-6-oxo-7,8,9,10-tetrahydro-6H-pyrido[3′,2′:4,5]pyrrolo[1,2-a][1,4]diazepine-2-carboxamide], 0.012 µM.
The value for `O=C(Nc1nc2cc(Cl)cc(CN3CCOCC3)c2[nH]1)c1ccc2cc3n(c2n1)CCCNC3=O` [Example 49, N-[5-chloro-7-(morpholin-4-ylmethyl)-1H-benzimidazol-2-yl]-6-oxo-7,8,9,10-tetrahydro-6H-pyrido[3′,2′:4,5]pyrrolo[1,2-a][1,4]diazepine-2-carboxamide] was 0.0067 µM; that for `CC1(C)CNC(=O)c2cc3ccc(C(=O)Nc4nc5cc(Cl)ccc5[nH]4)nc3n2C1` [Example 50, N-(5-chloro-1H-benzimidazol-2-yl)-9,9-dimethyl-6-oxo-7,8,9,10-tetrahydro-6H-pyrido[3′,2′:4,5]pyrrolo[1,2-a][1,4]diazepine-2-carboxamide] was 0.055 µM; that for `Cn1c(NC(=O)c2ccc3cc4n(c3n2)CCCNC4=O)nc2ccccc21` [Example 51, N-(1-methyl-1H-benzimidazol-2-yl)-6-oxo-7,8,9,10-tetrahydro-6H-pyrido[3′,2′:4,5]pyrrolo[1,2-a][1,4]diazepine-2-carboxamide] was 0.365 µM.
As for `Cn1c(NC(=O)c2ccc3cc4n(c3n2)CC(C)(C)CNC4=O)nc2ccccc21` [Example 52, 9,9-dimethyl-N-(1-methyl-1H-benzimidazol-2-yl)-6-oxo-7,8,9,10-tetrahydro-6H-pyrido[3′,2′:4,5]pyrrolo[1,2-a][1,4]diazepine-2-carboxamide], the figure is 2.5 µM.
For the molecule `CC(C)n1c(NC(=O)c2ccc3cc4n(c3n2)CCCNC4=O)nc2ccccc21` [Example 53, 6-oxo-N-[1-(propan-2-yl)-1H-benzimidazol-2-yl]-7,8,9,10-tetrahydro-6H-pyrido[3′,2′:4,5]pyrrolo[1,2-a][1,4]diazepine-2-carboxamide], the IC50 was found to be 0.63 µM.
The value for `CC(C)n1c(NC(=O)c2ccc3cc4n(c3n2)CC(C)(C)CNC4=O)nc2ccccc21` [Example 54, 9,9-dimethyl-6-oxo-N-[1-(propan-2-yl)-1H-benzimidazol-2-yl]-7,8,9,10-tetrahydro-6H-pyrido[3′,2′:4,5]pyrrolo[1,2-a][1,4]diazepine-2-carboxamide] was 1.3 µM.
The value for `CCn1c(NC(=O)c2ccc3cc4n(c3n2)CCCNC4=O)nc2ccccc21` [Example 55, N-(1-ethyl-1H-benzimidazol-2-yl)-6-oxo-7,8,9,10-tetrahydro-6H-pyrido[3′,2′:4,5]pyrrolo[1,2-a][1,4]diazepine-2-carboxamide] was 0.14 µM; that for `CCn1c(NC(=O)c2ccc3cc4n(c3n2)CC(C)(C)CNC4=O)nc2ccccc21` [Example 56, N-(1-ethyl-1H-benzimidazol-2-yl)-9,9-dimethyl-6-oxo-7,8,9,10-tetrahydro-6H-pyrido[3′,2′:4,5]pyrrolo[1,2-a][1,4]diazepine-2-carboxamide] was 0.195 µM; that for `CN(C)CCCn1c(NC(=O)c2ccc3cc4n(c3n2)CCCNC4=O)nc2ccccc21` [Example 57, N-{1-[3-(dimethylamino)propyl]-1H-benzimidazol-2-yl}-6-oxo-7,8,9,10-tetrahydro-6H-pyrido[3′,2′:4,5]pyrrolo[1,2-a][1,4]diazepine-2-carboxamide] was 0.245 µM.
Take `CN(C)CCCn1c(NC(=O)c2ccc3cc4n(c3n2)CC(C)(C)CNC4=O)nc2ccccc21` [Example 58, N-{1-[3-(dimethylamino)propyl]-1H-benzimidazol-2-yl}-9,9-dimethyl-6-oxo-7,8,9,10-tetrahydro-6H-pyrido[3′,2′:4,5]pyrrolo[1,2-a][1,4]diazepine-2-carboxamide]: the IC50 was 2.3 µM.
As to `C[C@@H]1CNC(=O)c2cc3ccc(C(=O)Nc4cnn(Cc5ccccc5)c4)nc3n21` [Example 59, (9R)-N-(1-benzyl-1H-pyrazol-4-yl)-9-methyl-6-oxo-6,7,8,9-tetrahydropyrido[3′,2′:4,5]pyrrolo[1,2-a]pyrazine-2-carboxamide], the IC50 stood at 0.0002 µM.
